Our source for the inhibition and IC50 values is ChEMBL document CHEMBL3351804, “Development of 2-aryl substituted quinazolin-4(3H)-one, pyrido[4,3-d]pyrimidin-4(3H)-one and pyrido[2,3-d]pyrimidin-4(3H)-one derivatives as microsomal prostaglandin E(2) synthase-1 inhibitors” (Bioorg Med Chem Lett, 2014).

Broadly, the inhibition is the change of the read-out against control, counted positive when it falls. As usually defined, the IC50 is the concentration that gives 50% inhibition.

In assay [1] the target is T1, Prostaglandin E synthase (Homo sapiens) (UniProt O14684).
T1 sequence (whole entry): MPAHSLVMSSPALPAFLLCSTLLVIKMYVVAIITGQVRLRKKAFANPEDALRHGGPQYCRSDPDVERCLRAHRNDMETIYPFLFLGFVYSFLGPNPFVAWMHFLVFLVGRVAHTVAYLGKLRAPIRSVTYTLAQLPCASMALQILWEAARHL
Briefly: Inhibition of human recombinant mPGES-1 expressed in CHO cells using PGH2 as substrate at 1 uM incubated for 10 mins prior to substrate addition measured after 1 min.

Assay [2] concerns the target T1, Prostaglandin E synthase (Homo sapiens). Briefly: Inhibition of human recombinant mPGES-1 expressed in CHO cells using PGH2 as substrate at 10 uM incubated for 10 mins prior to substrate addition measured after 1 min. The class given is cell-based.
Assay [3] concerns the target T2, Prostaglandin E synthase (Homo sapiens, UniProt O14684).
T2 sequence (O14684 whole entry): T1 sequence (whole entry)
Briefly: Inhibition of human recombinant mPGES-1 expressed in CHO cells using PGH2 as substrate incubated for 10 mins prior to substrate addition measured after 1 min.

Assay [4] deals with T2, Prostaglandin E synthase. Description: Inhibition of mPGES-1 in human A549 cells assessed as inhibition of IL-1beta-induced PGE2 production incubated for 30 mins prior to IL-1beta challenge measured after 18 to 24 hrs. The class given is cell-based.
The target of assay [5] is T2, Prostaglandin E synthase. Description: Inhibition of mPGES-1 in human whole blood assessed as inhibition of LPS-induced PGE2 production after overnight incubation.
Assay [6] in a line: Inhibition of guinea pig recombinant mPGES-1. More on the design: species or system Cavia porcellus.
For assay [7], the target named is T2, Prostaglandin E synthase. Description: Inhibition of mPGES-1 in human A549 cells using arachidonic acid as substrate assessed as inhibition of IL-1beta/TNF-alpha-induced PGE2 production incubated for 30 mins prior to substrate addition measured after 30 mins by EIA. The class given is cell-based.
The target in assay [8] is T2, Prostaglandin E synthase. Description: Inhibition of mPGES-1 in human A549 cells assessed as inhibition of IL-1beta-induced PGE2 production incubated for 30 mins prior to IL-1beta challenge measured after 18 hrs by plate reader analysis. It is filed as cell-based.
Assay [9] addresses T2, Prostaglandin E synthase. Description: Inhibition of mPGES-1 in human whole blood assessed as inhibition of LPS-induced PGE2 production incubated for 30 mins prior to LPS challenge measured after 20 to 24 hrs by LC/MS/MS analysis.
Assay [10] deals with T2, Prostaglandin E synthase. Description: Inhibition of mPGES-1 in human A549 cells. The class given is cell-based.
For assay [11], the target named is T2, Prostaglandin E synthase. Description: Inhibition of human mPGES-1.

With `CC(C)C(=O)NCc1ccc(Cl)c(-c2nc3cc(NC(=O)C4CC4)ccc3c(=O)[nH]2)c1`, the results for the inhibition in [1] and in assay [2] were 21% and 74%, respectively.

As for `CC(C)C(=O)NCc1ccc(Cl)c(-c2nc3cc(C4CC4)ccc3c(=O)[nH]2)c1`, the IC50 at Prostaglandin E synthase [3] was determined as 58 nM.

`COc1cc2c(=O)[nH]c(-c3cc(CNC(=O)C(C)C)ccc3Cl)nc2cc1Cl`: at Prostaglandin E synthase [3], the half-maximal inhibitory concentration (IC50) was 111 nM.

`CC(=O)O[C@@H]1CCN(c2cc3c(=O)[nH]c(-c4cc(CNC(=O)C(C)C)ccc4Cl)nc3cc2Cl)C1`: on Prostaglandin E synthase [3], the IC50 came out at 248 nM.

On to `CC(C)C(=O)NCc1ccc(Cl)c(-c2nc3cc(Cl)c(N4CC(C(=O)NC(C)(C)C)C4)cc3c(=O)[nH]2)c1`, for which the half-maximal inhibitory concentration (IC50) on Prostaglandin E synthase [3] was found to be 59 nM.

Regarding `CC(C)C(=O)NCc1ccc(Cl)c(-c2nc3nc(-c4ccc(C(F)(F)F)cc4)ccc3c(=O)[nH]2)c1`, the values for the IC50 on Prostaglandin E synthase [4], on Prostaglandin E synthase [3] and on Prostaglandin E synthase [5] were 11 nM, 10 nM and 328 nM, respectively.

In the case of `CC(C)C(=O)NCc1cnc(C(F)F)c(-c2nc3cc(-c4ccc(C(F)(F)F)cc4)ncc3c(=O)[nH]2)c1`, the results for the 50% inhibitory concentration (IC50) on Prostaglandin E synthase [4] and on Prostaglandin E synthase [3] were 111 nM and 4 nM, respectively.

`CC(C)(C)C(=O)NCc1ccc(Cl)c(C(=O)Nc2ccc3cnn(-c4ccc(C(F)(F)F)cc4)c(=O)c3c2)c1`: the IC50 on Prostaglandin E synthase [3] is 5 nM.

For the compound `CC(=O)O[C@H]1CCN(c2cc3c(=O)[nH]c(-c4cc(CNC(=O)C(C)C)ccc4Cl)nc3cc2Cl)C1`, on Prostaglandin E synthase [3], the IC50 came to 243 nM.

In the case of `CC(C)C(=O)NCc1ccc(Cl)c(-c2nc3cc(Cl)c(N4CCN(C)CC4)cc3c(=O)[nH]2)c1`, the inhibition in assay [1] came out at 41%; in assay [2], 75%.

With `CC(C)C(=O)NCc1ccc(Cl)c(-c2nc3cc(Cl)c(-c4ccncc4)cc3c(=O)[nH]2)c1`, at Prostaglandin E synthase [3], the concentration for half-maximal inhibition (IC50) worked out at 481 nM.

With `CC(C)C(=O)NCc1ccc(Cl)c(-c2nc3cc(-c4ccc(C(F)(F)F)nc4)ccc3c(=O)[nH]2)c1`, the figures for the IC50 on Prostaglandin E synthase [4] and at Prostaglandin E synthase [3] were 23 nM and 16 nM, respectively.

Regarding `CC(C)C(=O)NCc1ccc(Cl)c(-c2nc3cc(N4CCC(C(F)(F)F)CC4)ccc3c(=O)[nH]2)c1`, the 50% inhibitory concentration (IC50) at Prostaglandin E synthase [3] amounted to 74 nM.

With `CC(C)C(=O)NCc1ccc(Cl)c(-c2nc3ccccc3c(=O)[nH]2)c1`, the inhibition in assay [1] was determined as 17%; in assay [2] it was 67%.

`CC(C)C(=O)NCc1ccc(Cl)c(-c2nc3cc(Cl)c(N4CCC(C(F)F)CC4)cc3c(=O)[nH]2)c1`: the concentration for half-maximal inhibition (IC50) at Prostaglandin E synthase [3] came out at 24 nM.

Take `CC(C)C(=O)NCc1ccc(Cl)c(-c2nc3cc(Cl)c(C4CC4)cc3c(=O)[nH]2)c1`: the IC50 on Prostaglandin E synthase [3] turned out to be 32 nM.

With `N#Cc1cccc(C#N)c1-c1nc2c3ccc(Cl)cc3c3ccccc3c2[nH]1`, the IC50 in assay [6] was found to be 0.9 nM.

On to `O=C(Nc1ccnc2c(Nc3ccc(C(F)(F)F)cc3)nsc12)c1c(F)cccc1Cl`, for which, on Prostaglandin E synthase [3], the IC50 was 157 nM.

For the compound `CC(C)C(=O)NCc1ccc(Cl)c(-c2nc3cc(N)ccc3c(=O)[nH]2)c1`, the results for the inhibition in assay [1] and in assay [2] were 16% and 70%, respectively.

Consider `CC(C)C(=O)NCc1ccc(Cl)c(-c2nc3cc(Cl)c(N4CCNC(=O)C4)cc3c(=O)[nH]2)c1`, for which the values for the inhibition in [1] and in assay [2] were 30% and 79%, respectively.

On to `O=C(Nc1ccc2cnn(-c3ccc(Br)cc3)c(=O)c2c1)c1c(F)cccc1Cl`, for which, at Prostaglandin E synthase [3], the IC50 worked out at 179 nM.

On to `CC(C)C(=O)NCc1cnc(C(F)F)c(-c2nc3cc(-c4ccc(C(F)(F)F)cc4)ccc3c(=O)[nH]2)c1`, for which the half-inhibitory concentration (IC50) on Prostaglandin E synthase [4] came to 33 nM; at Prostaglandin E synthase [3] it was 6 nM.

In the case of `CC(C)C(=O)NCc1ccc(Cl)c(-c2nc3cc(Cl)ccc3c(=O)[nH]2)c1`, the IC50 on Prostaglandin E synthase [3] was found to be 42 nM.

With `O=C(Nc1ccc(C(F)(F)F)cn1)c1cccc(NC(=O)c2ccccc2C(F)(F)F)c1`, the 50% inhibitory concentration (IC50) at Prostaglandin E synthase [7] stood at 500 nM.

Consider `CC(C)C(=O)NCc1ccc(Cl)c(-c2nc3cc(Cl)c(N4CC[C@H](O)C4)cc3c(=O)[nH]2)c1`, for which the inhibition was determined as 42% in assay [1] and 91% in [2].

Consider `COc1ccc2c(=O)[nH]c(-c3cc(CNC(=O)C(C)C)ccc3Cl)nc2c1`, for which the IC50 on Prostaglandin E synthase [3] came to 304 nM.

Regarding `CC(C)C(=O)NCc1ccc(Cl)c(-c2nc3cc(Cl)c(N4CCOCC4)cc3c(=O)[nH]2)c1`, the half-maximal inhibitory concentration (IC50) on Prostaglandin E synthase [3] worked out at 261 nM.

For `CC(C)C(=O)NCc1ccc(Cl)c(-c2nc3cc(Cl)c(N4CCC(O)CC4)cc3c(=O)[nH]2)c1`, the concentration for half-maximal inhibition (IC50) on Prostaglandin E synthase [3] was determined as 713 nM.

On to `CC(C)C(=O)NCc1ccc(Cl)c(-c2nc3cc(F)ccc3c(=O)[nH]2)c1`, for which the figures for the inhibition in assay [1] and in [2] were 52% and 98%, respectively.

Take `CC(C)C(=O)NCc1ccc(Cl)c(-c2nc3cc(Cl)c(N4CC[C@@H](O)C4)cc3c(=O)[nH]2)c1`: the inhibition is 67% in assay [1] and 95% in [2].

`CC(C)C(=O)NCc1ccc(Cl)c(-c2nc3ccc(-c4ccc(C(F)(F)F)cc4)cc3c(=O)[nH]2)c1`: the IC50 at Prostaglandin E synthase [3] came to 55 nM.

Consider `CNC(=O)C1CCN(c2cc3c(=O)[nH]c(-c4cc(CNC(=O)C(C)C)ccc4Cl)nc3cc2Cl)CC1`, for which the inhibition was determined as 28% in [1] and 76% in [2].

As to `CC(C)C(=O)NCc1ccc(Cl)c(-c2nc3cc(C(N)=O)ccc3c(=O)[nH]2)c1`, the inhibition was found to be 14% in [1] and 16% in [2].

As to `CC(C)(C)C(=O)NCc1ccc(Cl)c(C(=O)Nc2ccnc3c(Nc4ccc(C(F)(F)F)cc4)nsc23)c1`, the concentration for half-maximal inhibition (IC50) at Prostaglandin E synthase [3] was found to be 3 nM.

For the compound `CC(C)C(=O)NCc1ccc(Cl)c(-c2nc3cc(Cl)c(-c4ccc(C(F)(F)F)cc4)cc3c(=O)[nH]2)c1`, the IC50 on Prostaglandin E synthase [3] was 36 nM.

As for `CC(C)C(=O)NCc1ccc(Cl)c(-c2nc3cc(Br)ccc3c(=O)[nH]2)c1`, on Prostaglandin E synthase [3], the IC50 amounted to 36 nM.

As to `CC(C)C(=O)NCc1ccc(Cl)c(-c2nc3cc(-c4ccc(C(F)(F)F)cc4)ccc3c(=O)[nH]2)c1`, the results for the IC50 at Prostaglandin E synthase [4], at Prostaglandin E synthase [3] and on Prostaglandin E synthase [5] were 10 nM, 7 nM and 234 nM, respectively.

On to `CC(C)C(=O)NCc1ccc(Cl)c(-c2nc3cc([N+](=O)[O-])ccc3c(=O)[nH]2)c1`, for which the half-maximal inhibitory concentration (IC50) at Prostaglandin E synthase [3] was found to be 63 nM.

Turning to `Cc1nc(NC(=O)c2cc(CNC(=O)C(C)C)cnc2C(F)F)[nH]c1-c1ccc(C(F)(F)F)cc1`, the IC50 on Prostaglandin E synthase [8] and on Prostaglandin E synthase [9] was 12 nM each time.

On to `CC(C)C(=O)NCc1ccc(Cl)c(-c2nc3cc(C(F)(F)F)ccc3c(=O)[nH]2)c1`, for which the IC50 on Prostaglandin E synthase [3] amounted to 26 nM.

Turning to `COCc1nc2c(C(=O)Nc3cccc(Cl)c3C)cc(NC(=O)c3c(Cl)cccc3C(F)(F)F)cc2[nH]1`, the IC50 was 1.2 nM against Prostaglandin E synthase [10] and 0.1 nM against Prostaglandin E synthase [11].
